Values joined by “and” are separate entries in the source; they are usually repeats but may differ in a detail not shown here. Equal entries are not always repeated.
Experiments:
[1] = In vitro agonist activity at kappa opioid receptor in rabbit vas deferens.
[2] = as above; remark: listed apart in the source

Row | Structure (SMILES) | IC50 [1] [nM] | IC50 [2]
1 | COC(=O)/C=C1/CCN(CC2CN(C(=O)OC)CCN2C(=O)Cc2ccc(Cl)c(Cl)c2)C1 (centres undefined) [4-[2-(3,4-Dichloro-phenyl)-acetyl]-3-(3-methoxycarbonylmethylene-pyrrolidin-1-ylmethyl)-piperazine-1-carboxylic acid methyl ester] | 0.28 | 
2 | COC(=O)N1CCN(C(=O)Cc2ccc(Cl)c(Cl)c2)C(CN2CCCC2)C1 (centres undefined) [GR-89696] |  | 0.041 nM and 0.018 nM
3 | O=C(OCc1ccccc1)N1CCN(C(=O)Cc2ccc(Cl)c(Cl)c2)C(CN2CCCC2)C1 (centres undefined) [4-[2-(3,4-Dichloro-phenyl)-acetyl]-3-pyrrolidin-1-ylmethyl-piperazine-1-carboxylic acid benzyl ester] | 450 | 
4 | COCC(=O)N1CCN(C(=O)Cc2ccc(Cl)c(Cl)c2)C(CN2CCCC2)C1 (centres undefined) [2-(3,4-Dichloro-phenyl)-1-[4-(2-methoxy-acetyl)-2-pyrrolidin-1-ylmethyl-piperazin-1-yl]-ethanone] | 2900 | 
5 | C=CC(=O)N1CCN(C(=O)Cc2ccc(Cl)c(Cl)c2)C(CN2CCCC2)C1 (centres undefined) [1-{4-[2-(3,4-Dichloro-phenyl)-acetyl]-3-pyrrolidin-1-ylmethyl-piperazin-1-yl}-propenone] | 0.42 | 
6 | CCOC(=O)N1CCN(C(=O)Cc2ccc(Cl)c(Cl)c2)C(CN2CCCC2)C1 (centres undefined) [4-[2-(3,4-Dichloro-phenyl)-acetyl]-3-pyrrolidin-1-ylmethyl-piperazine-1-carboxylic acid ethyl ester] | 3.5 | 
7 | COC(=O)/C=C1\CCN(CC2CN(C(=O)OC)CCN2C(=O)Cc2ccc(Cl)c(Cl)c2)C1 (centres undefined) [4-[2-(3,4-Dichloro-phenyl)-acetyl]-3-(3-methoxycarbonylmethylene-pyrrolidin-1-ylmethyl)-piperazine-1-carboxylic acid methyl ester] | 4 | 
8 | COC(=O)N1CCN(C(=O)Cc2ccc(Cl)c(Cl)c2)C(CN2CCC(=O)C2)C1 (centres undefined) [4-[2-(3,4-Dichloro-phenyl)-acetyl]-3-(3-oxo-pyrrolidin-1-ylmethyl)-piperazine-1-carboxylic acid methyl ester] | 0.34 | 
9 | COC(=O)N1CCN(C(=O)Cc2ccc(Cl)c(Cl)c2)C(CN2CC=CCC2)C1 (centres undefined) [4-[2-(3,4-Dichloro-phenyl)-acetyl]-3-(3,6-dihydro-2H-pyridin-1-ylmethyl)-piperazine-1-carboxylic acid methyl ester] | 0.04 | 
10 | CC(=O)N1CCN(C(=O)Cc2ccc(Cl)c(Cl)c2)C(CN2CCCC2)C1 (centres undefined) [1-(4-Acetyl-2-pyrrolidin-1-ylmethyl-piperazin-1-yl)-2-(3,4-dichloro-phenyl)-ethanone] | 10 | 
11 | COC(=O)N1CCN(C(=O)Cc2ccc(Cl)c(Cl)c2)C(CN(C)C)C1 (centres undefined) [4-[2-(3,4-Dichloro-phenyl)-acetyl]-3-dimethylaminomethyl-piperazine-1-carboxylic acid methyl ester] | 1.2 | 
12 | CCCOC(=O)N1CCN(C(=O)Cc2ccc(Cl)c(Cl)c2)C(CN2CCCC2)C1 (centres undefined) [4-[2-(3,4-Dichloro-phenyl)-acetyl]-3-pyrrolidin-1-ylmethyl-piperazine-1-carboxylic acid propyl ester] | 300 | 
13 | COC(=O)N1CCN(C(=O)Cc2ccc(Cl)c(Cl)c2)C(CN2CCC(O)C2)C1 (centres undefined) [4-[2-(3,4-Dichloro-phenyl)-acetyl]-3-(3-hydroxy-pyrrolidin-1-ylmethyl)-piperazine-1-carboxylic acid methyl ester] | 0.34 | 
14 | O=CN1CCN(C(=O)Cc2ccc(Cl)c(Cl)c2)C(CN2CCCC2)C1 (centres undefined) [4-[2-(3,4-Dichloro-phenyl)-acetyl]-3-pyrrolidin-1-ylmethyl-piperazine-1-carbaldehyde] | 15 | 
15 | O=C(Cc1ccccc1)N1CCN(C(=O)Cc2ccc(Cl)c(Cl)c2)C(CN2CCCC2)C1 (centres undefined) [2-(3,4-Dichloro-phenyl)-1-(4-phenylacetyl-2-pyrrolidin-1-ylmethyl-piperazin-1-yl)-ethanone] | > 10000 | 
16 | CCCC(=O)N1CCN(C(=O)Cc2ccc(Cl)c(Cl)c2)C(CN2CCCC2)C1 (centres undefined) [1-{4-[2-(3,4-Dichloro-phenyl)-acetyl]-3-pyrrolidin-1-ylmethyl-piperazin-1-yl}-butan-1-one] | 60 | 
17 | O=C(Oc1ccccc1)N1CCN(C(=O)Cc2ccc(Cl)c(Cl)c2)C(CN2CCCC2)C1 (centres undefined) [4-[2-(3,4-Dichloro-phenyl)-acetyl]-3-pyrrolidin-1-ylmethyl-piperazine-1-carboxylic acid phenyl ester] | > 10000 | 
18 | CCC(=O)N1CCN(C(=O)Cc2ccc(Cl)c(Cl)c2)C(CN2CCCC2)C1 (centres undefined) [1-{4-[2-(3,4-Dichloro-phenyl)-acetyl]-3-pyrrolidin-1-ylmethyl-piperazin-1-yl}-propan-1-one] | 6.9 | 
19 | O=C(c1ccccc1)N1CCN(C(=O)Cc2ccc(Cl)c(Cl)c2)C(CN2CCCC2)C1 (centres undefined) [1-(4-Benzoyl-2-pyrrolidin-1-ylmethyl-piperazin-1-yl)-2-(3,4-dichloro-phenyl)-ethanone] | > 10000 | 

Reference: BindingDB's records for doi:10.1021/jm00067a004 (Glaxo Group Research, 1993)
